What was measured:
Breast Cancer Cells = assay: Effect of fatty acids, breast cancer cells (Table 2); format: cell-based; conditions: FAS named only for oleic acid
Lipogenic Cells = assay: Effect of fatty acids, lipogenic cells (Table 2); format: cell-based
p185^Her-2/neu = assay: Flow cytometric analysis of cell surface-associated p185Her-2/neu; format: cell-based, human; conditions: scavenger of reactive oxygen species added to OA treatment
From the text: FIG. 1. […] FIG. 2. […] The amount of cell surface-associated p185^Her-2/neu was quantified by flow cytometric analyses using a specific antibody against the extracellular domain of p185^Her-2/neu (Ab-5), as described herein. The mean fluorescence signal±SD (n=3) was quantified using the geo mean fluorescence (GM) parameter provided with the Cell Quest Software (Becton Dickinson). […] After labeling, cells were washed thoroughly, and localization of p185^Her-2/neu was detected by indirect immunofluorescence by incubating with FITC-conjugated anti-mouse IgG. After counterstaining with DAPI, cells were examined and photographed using a Zeiss fluorescent microscope equipped with a built-in camera. […] Before experiments, cells were serum-starved overnight and then cultured in IMEM containing 0.1% FBS in the absence or presence of GLA (Sigma Chemical Co., St. Louis, Mo.). GLA was prepared at a concentration of 1 mg/mL in ethanol and was added to a final concentration of 0, 5, 10, or 20 μg/mL; an equal volume of ethanol was added to control cells. […] A) Cell surface expression of Her-2/neu protein in BT-474 and SK-Br3 cells was determined by flow cytometry using a mouse anti-Her-2/neu antibody directed against the extracellular domain of the p185^Her-2/neu oncoprotein (clone Ab-5; Oncogene Research Products; San Diego, Calif.). Briefly, after GLA or control treatment, cells were washed, harvested, resuspended in phosphate-buffered saline (PBS) containing 1% FBS, and incubated with 5 μg/mL Ab-5 antibody for 1 hour at 4° C. The cells were washed again and then incubated with a fluorescein isothiocyanate (FITC)-conjugated anti-mouse IgG secondary antibody (Jackson ImnunoResearch Laboratories, West Grove, Pa.) diluted 1:200 in cold PBS containing 1% FBS for 45 minutes at 4° C. The cells were washed once more in cold PBS, and flow cytometric analysis was performed with a FACScalibur flow cytometer (Becton Dickinson, San Diego, Calif.) equipped with Cell Quest Software (Becton Dickinson). […] As a control for nonspecific immunofluorescence, cells were stained with the secondary antibody alone (solid black line). The mean fluorescence signal associated with cells for labeled p185^Her-2/neu was quantified using the Geo Mean (GM) fluorescence parameter provided with the software. […] B) Immunoblot analysis of Her-2/neu and PEA3 proteins in control- and GLA-treated BT-474 and SK-Br3 cells. […] Immunoreactive bands were detected by enhanced chemiluminescence reagent (Pierce, Rockford, Ill.). Blots were reprobed with an anti-β-actin goat polyclonal antibody (Santa Cruz Biotechnology) to control for protein loading and transfer. Densitometric values of protein bands were quantified using Scion Imaging Software (Scion Corp., Frederick, Md.).

Row | SMILES | Effect of Fatty Acids: Breast Cancer Cells (Breast Cancer Cells) | Effect of Fatty Acids: Lipogenic Cells (Lipogenic Cells) | prevention of OA-induced suppression of Her-2/neu overexpression (p185^Her-2/neu)
1 | CCC=CCC=CCC=CCCCCCCCC(=O)O [ω-3 Alpha-Linolenic acid, 9,12,15-octadecatrienoic acid] | Potent Down-regulator | No effect | –
2 | CCCCCC=CCC=CCCCCCCCC(=O)O [ω-6 Linoleic acid, 9,12-octadecadienoic acid, reference compound] | No effect | Potent | –
3 | CCC=CCC=CCC=CCC=CCC=CCCCC(=O)O [ω-3 Eicosapentaenoic acid, 5,8,11,14,17-eicosapentaenoic acid, reference compound] | No effect | Down-regulator | –
4 | Cc1c(C)c2c(c(C)c1O)CCC(C)(CCCC(C)CCCC(C)CCCC(C)C)O2 (racemic) [vitamin E, dl-α-tocopherol, reference compound] | – | – | not significantly prevented
5 | CCC=CCC=CCC=CCC=CCC=CCC=CCCC(=O)O [ω-3 Docosahexaenoic acid, 4,7,10,13,16,19-docosahexaenoic acid, reference compound] | Weak Down-regulator | No effect | –

Source: patent US20070207975A1, “Materials and methods for treating and preventing Her-2/neu overexpressing, FAS-elevated cancer cells” (EVANSTON NORTHWESTERN HEALTHCARE, priority 2006, published 2007)
